According to patent US5681738A, “Use of 10-oxo-trans-8-decenoic acid in mushroom cultivation” (The Penn State Research Foundation, priority 1992, dated 1997):

Tests used:
[1] = Dissociation constant by titration with ethanolic NaOH; type: physicochemical; conditions: water; aqueous solution; Henderson-Hasselbalch; standard deviation 10^0.04; read-out: dissociation constant (Ka)
Experimental: The purity of ODA was then determined by titration with ethanolic NaOH. The molarity of NaOH was standardized by anhydrous oxalic acid which was dried overnight at 100° C. Three points in the titration curve, with the ratios of [A-] to [HA] equal to 1/3, 1/1 and 3/1, respectively, were chosen for the calculation of the dissociation constant (Ka) of ODA based on the Henderson-Hasselbalch equation (Mathews et al., (1990)): […]

[2] = tested on: Agaricus bisporus mycelia; experiment: Laccase activity of mycelia grown in potato dextrose yeast broth at 25° C.; type: cell-based, Agaricus bisporus (hybrid off-white)
Experimental: The commercial mushroom spawn (hybrid off-white), Agaricus bisporus (Lange) Imbach, was obtained from Alpha Spawn Co., Avondale, Pa., and inoculated onto potato dextrose yeast (PDY) agar (Difco) and incubated at 25° C. A pure culture was obtained from the grain spawn grown on petri dishes and re-inoculated into PDY agar and maintained at 25° C. before use.
The mushroom culture was grown on PDY agar or in PDY broth, both containing 0.5% yeast extract. The broth was dispensed into flasks prior to autoclaving, 50 mL. per flask, while 5 mL of sterile ODA solutions were aseptically added into flasks before inoculation.
To prepare ODA solutions, about 18.4 mg (0.1 mmole) of 10-oxo-trans-8-decenoic acid prepared as described above were dissolved in i mL ethanol and diluted with deionized water to 100 mL to give a molar concentration of 10^-3 M, and then diluted in order to add 1.0 mL of the solutions to each flask to give the required final concentrations.
Sterile ODA solutions were aseptically added into the autoclaved agar medium to achieve the desired final ODA concentrations, and then the medium was dispensed into petri dishes, ca 30 ml per dish. The levels of ODA tested included 2×10^-4, 10^-4, 10^-5, 10^-6 and 10^-7 M for both PDY agar and broth. These flasks and dishes were inoculated with 1 mm mycelial plugs from 4-week old cultures and incubated statically at 25° C. for 5 weeks. Each week, ca 300 μL of broth was aseptically taken from the flasks for laccase assay, while the colony diameter of every petri dish was measured using a vernier caliper to calculate the linear growth of the culture.
The activity of laccase was assayed as described in Leonowicz et al., (1981). The reaction mixture consisted of 1.0 ml of 0.04M MES (2-[N-morpholino] ethanesulfonic acid, Sigma)-NaOH buffer, pH 5.3, 200 μL of 0.5 mM syringaldazine ([…], Sigma) in EtOH, and 100 μL of culture broth withdrawn from the flasks making up a final volume of 1.3 mL. The control mixture contained no culture broth. The change in absorbance was monitored for 5 mins at 525 nm. Laccase activity was expressed in units of kat, the conversion of 1 mole of syringaldazine per sec.
Methods for the estimation of total fungal growth include the measurement of dry matter, linear growth, carbon dioxide evolution, chitin, ATP as well as extracellular laccase activity (Cochrane, (1958); Wood, (1979)). In this research the linear growth rate was used to examine the growth of mushroom mycelia on agar plates, while the extracellular laccase activity and dry matter were determined to estimate the growth of mycelia in liquid cultures. Extracellular laccases (p-diphenol: oxygen oxidoreductase, EC 1.10.3.2) produced by various classes of fungi are reported to be involved in biotransformation of lignin and lignosulfonate (Anders et al., (1976)), as well as in the breakdown of cellulose by cellulase (Westermark et al., (1974a); Westermark et al., (1974b); Haars et al., (1980)). Although the role of laccase in growth and development of Agaricus bisporus is not well defined, it has been observed that laccase production correlated with mycelial biomass of this fungus (Wood, (1979); Matcham et al., (1985); Claydon et al., (1988)).

O=C/C=C/CCCCCCC(=O)O [ODA, 10-oxo-trans-8-decenoic acid]
pKa [1]: 4.68 | mycelial growth by laccase activity and dry matter (in words) ([2]; 10^-6 and 10^-5 M (0.184 and 1.84 ppm), liquid culture): stimulated | LOG [Laccase activity (mkat/ml)] ([2]; ODA 2 × 10^-4 M (36.8 ppm), Week 1, control 0.49): 0.25 LOG (mkat/ml) | LOG [Laccase activity (mkat/ml)] ([2]; ODA 2 × 10^-4 M (36.8 ppm), Week 2, control 1.19): 1.84 LOG (mkat/ml) | LOG [Laccase activity (mkat/ml)] ([2]; ODA 2 × 10^-4 M (36.8 ppm), Week 3, control 1.97): 2.07 LOG (mkat/ml) | LOG [Laccase activity (mkat/ml)] ([2]; ODA 2 × 10^-4 M (36.8 ppm), Week 4, control 2.37): 2.15 LOG (mkat/ml) | LOG [Laccase activity (mkat/ml)] ([2]; ODA 2 × 10^-4 M (36.8 ppm), Week 5, control 2.74): 2.38 LOG (mkat/ml) | LOG [Laccase activity (mkat/ml)] ([2]; ODA 10^-4 M (18.4 ppm), Week 1, control 0.49): 1.04 LOG (mkat/ml) | LOG [Laccase activity (mkat/ml)] ([2]; ODA 10^-4 M (18.4 ppm), Week 2, control 1.19): 2.13 LOG (mkat/ml) | LOG [Laccase activity (mkat/ml)] ([2]; ODA 10^-4 M (18.4 ppm), Week 3, control 1.97): 2.29 LOG (mkat/ml) | LOG [Laccase activity (mkat/ml)] ([2]; ODA 10^-4 M (18.4 ppm), Week 4, control 2.37): 2.38 LOG (mkat/ml) | LOG [Laccase activity (mkat/ml)] ([2]; ODA 10^-4 M (18.4 ppm), Week 5, control 2.74): 2.64 LOG (mkat/ml) | LOG [Laccase activity (mkat/ml)] ([2]; ODA 10^-5 M (1.84 ppm), Week 1, control 0.49): 1.63 LOG (mkat/ml) | LOG [Laccase activity (mkat/ml)] ([2]; ODA 10^-5 M (1.84 ppm), Week 2, control 1.19): 2.62 LOG (mkat/ml) | LOG [Laccase activity (mkat/ml)] ([2]; ODA 10^-5 M (1.84 ppm), Week 3, control 1.97): 2.90 LOG (mkat/ml) | LOG [Laccase activity (mkat/ml)] ([2]; ODA 10^-5 M (1.84 ppm), Week 4, control 2.37): 3.20 LOG (mkat/ml) | LOG [Laccase activity (mkat/ml)] ([2]; ODA 10^-5 M (1.84 ppm), Week 5, control 2.74): 3.53 LOG (mkat/ml) | LOG [Laccase activity (mkat/ml)] ([2]; ODA 10^-6 M (0.184 ppm), Week 1, control 0.49): 1.16 LOG (mkat/ml) | LOG [Laccase activity (mkat/ml)] ([2]; ODA 10^-6 M (0.184 ppm), Week 2, control 1.19): 2.34 LOG (mkat/ml) | LOG [Laccase activity (mkat/ml)] ([2]; ODA 10^-6 M (0.184 ppm), Week 3, control 1.97): 2.76 LOG (mkat/ml) | LOG [Laccase activity (mkat/ml)] ([2]; ODA 10^-6 M (0.184 ppm), Week 4, control 2.37): 3.07 LOG (mkat/ml) | LOG [Laccase activity (mkat/ml)] ([2]; ODA 10^-6 M (0.184 ppm), Week 5, control 2.74): 3.43 LOG (mkat/ml) | LOG [Laccase activity (mkat/ml)] ([2]; ODA 10^-7 M (0.0184 ppm), Week 1, control 0.49): 0.73 LOG (mkat/ml) | LOG [Laccase activity (mkat/ml)] ([2]; ODA 10^-7 M (0.0184 ppm), Week 2, control 1.19): 2.15 LOG (mkat/ml) | LOG [Laccase activity (mkat/ml)] ([2]; ODA 10^-7 M (0.0184 ppm), Week 3, control 1.97): 2.57 LOG (mkat/ml) | LOG [Laccase activity (mkat/ml)] ([2]; ODA 10^-7 M (0.0184 ppm), Week 4, control 2.37): 2.86 LOG (mkat/ml) | LOG [Laccase activity (mkat/ml)] ([2]; ODA 10^-7 M (0.0184 ppm), Week 5, control 2.74): 3.08 LOG (mkat/ml)
